Article PMC3262147 (Chemmedchem, 2011)
Like-named read-outs stand apart in the source and are kept apart here.

Tests used:
STS [1] = biological target: T1, STS (Homo sapiens, UniProt P08842); experiment: Inhibition of STS activity in intact monolayers of JEG-3 cells; assay type: cell-based; settings: for inhibition at 10 µM: JEG-3, JEG-3 cells
T1 sequence (P08842 22-583): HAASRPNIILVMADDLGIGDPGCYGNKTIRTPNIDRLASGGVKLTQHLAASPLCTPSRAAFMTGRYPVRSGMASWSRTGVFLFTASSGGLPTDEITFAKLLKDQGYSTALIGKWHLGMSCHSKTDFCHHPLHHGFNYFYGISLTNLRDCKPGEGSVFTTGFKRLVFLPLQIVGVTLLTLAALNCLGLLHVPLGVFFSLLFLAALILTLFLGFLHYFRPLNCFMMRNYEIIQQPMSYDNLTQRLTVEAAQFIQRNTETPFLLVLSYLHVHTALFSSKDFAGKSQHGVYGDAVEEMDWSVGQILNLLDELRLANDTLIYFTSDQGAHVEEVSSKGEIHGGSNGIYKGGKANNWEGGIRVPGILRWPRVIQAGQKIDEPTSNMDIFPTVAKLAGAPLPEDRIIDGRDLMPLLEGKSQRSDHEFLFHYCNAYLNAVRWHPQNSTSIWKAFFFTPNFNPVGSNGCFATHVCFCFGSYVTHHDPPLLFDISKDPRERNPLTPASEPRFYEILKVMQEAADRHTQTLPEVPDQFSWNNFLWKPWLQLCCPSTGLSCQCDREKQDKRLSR

liver STS, skin STS = settings: 1 and 10 mg kg^−1, cited from earlier work
STS [2] = settings: cited from earlier work
rat liver STS = settings: 24 h after administration, cited from earlier work
[3] = read-out: PM IC50, placental microsomes
[4] = preparation of placental microsomes

Structure (SMILES)	inhibition at 10 µM (STS [1]; determined at 10 μM)	IC50 (STS [1])	IC50 (STS [2]; [3])	also measured
NS(=O)(=O)Oc1ccc2c3c(c(OCCCc4ccccc4)nc2c1)CCCCC3 [Compound 23, 6-(3-Phenylpropoxy)-8,9,10,11-tetrahydro-7H-cyclohepta[c]quinolin-3-yl sulfamate]	< 10%	–	–	–
CN(C)S(=O)(=O)Oc1ccc2c3c(c(=O)oc2c1)CCCCC3 [Compound 12, 6-Oxo-6,7,8,9,10,11-hexahydrocyclohepta[c]chromen-3-yl dimethylsulfamate]	–	> 10000 nM	–	JEG-3 IC50 (STS [1]; JEG-3 cells, Table 1): inactive; Inhibition of skin and liver STS (liver STS, skin STS; applied topically): inhibits skin as well as liver STS effectively; Inhibition of liver STS activity (liver STS, skin STS; nude mice, oral): inhibits liver STS activity potently
NS(=O)(=O)Oc1ccc2c3c(c(=O)oc2c1)CCCCCCCCCCCCC3 [Compound 11, 6-Oxo-6,7,8,9,10,11,12,13,14,15,16,17,18,19-tetradecahydrocyclopentadeca[c]chromen-3-yl sulfamate]	–	1600 nM	370 nM	Inhibition of rat liver STS activity (rat liver STS; 0.1 mg kg^−1): 23%; Inhibition of rat liver STS activity (rat liver STS; 1 mg kg^−1): 94%
NS(=O)(=O)Nc1ccc2c3c(c(=O)[nH]c2c1)CCCCC3 [Compound 24, 6-Oxo-6,7,8,9,10,11-hexahydro-5H-cyclohepta[c]quinolin-3-ylsulfamide]	–	> 1000 nM	–	–
COc1cc2c3c(c(=O)oc2cc1OS(N)(=O)=O)CCCCC3 [Compound 13, 2-Methoxy-6-oxo-6,7,8,9,10,11-hexahydrocyclohepta[c]chromen-3-yl sulfamate]	–	78 ± 13 nM	–	–
NS(=O)(=O)Oc1ccc2c3c(c(=O)oc2c1)CCCCC3 [Compound 1, Irosustat]	–	–	8 nM	–
NS(=O)(=O)Oc1ccc2c3c(c(=O)oc2c1)CCCCCCCCCC3 [Compound 9, 6-Oxo-7,8,9,10,11,12,13,14,15,16-decahydro-6H-cyclododeca[c]chromen-3-yl sulfamate]	–	100 nM	60 nM	–
C[C@]12CC[C@@H]3c4ccc(OS(N)(=O)=O)cc4CC[C@H]3[C@@H]1CCC2=O [EMATE, oestrone 3-O-sulfamate, reference compound]	–	–	–	IC50 (STS [2]; [4]): 4 nM
CCCCCOc1nc2cc(OS(N)(=O)=O)ccc2c2c1CCCCC2 [Compound 21, 6-(Pentyloxy)-8,9,10,11-tetrahydro-7H-cyclohepta[c]quinolin-3-yl sulfamate]	< 10%	–	–	–
NS(=O)(=O)Oc1ccc2c3c(c(=O)oc2c1)CCCCCCCC3 [Compound 7, 6-Oxo-7,8,9,10,11,12,13,14-octahydro-6H-cyclodeca[c]chromen-3-yl sulfamate]	–	0.025 nM	1 nM	–
NS(=O)(=O)Oc1ccc2c3c(c(=O)[nH]c2c1)CCCCC3 [Compound 16, 6-Oxo-6,7,8,9,10,11-hexahydro-5H-cyclohepta[c]quinolin-3-yl sulfamate]	98%	240 ± 40 nM	–	Fold less potent than 1 (STS [1]; JEG-3 IC50 versus 1): 160 fold; Inhibition (STS [1]; JEG-3 cells, determined at 10 μM, 10 µM): 96%
COc1nc2cc(OS(N)(=O)=O)ccc2c2c1CCCCC2 [Compound 19, 6-Methoxy-8,9,10,11-tetrahydro-7H-cyclohepta[c]quinolin-3-yl sulfamate]	68%	–	–	–
NS(=O)(=O)Oc1ccc2c3c(c(=O)n(CCCc4ccccc4)c2c1)CCCCC3 [Compound 22, 6-Oxo-5-(3-phenylpropyl)-6,7,8,9,10,11-hexahydro-5H-cyclohepta[c]quinolin-3-yl sulfamate]	20%	–	–	–
NS(=O)(=O)Oc1ccc2oc(=O)c3c(c2c1)CCCCC3 [Compound 14, 6-oxo-6,7,8,9,10,11-hexahydrocyclohepta[c]chromen-2-yl sulfamate]	–	283 ± 66 nM	–	–
Cn1c(=O)c2c(c3ccc(OS(N)(=O)=O)cc31)CCCCC2 [Compound 18, 5-Methyl-6-oxo-6,7,8,9,10,11-hexahydro-5H-cyclohepta[c]quinolin-3-yl sulfamate]	–	2400 nM	–	–
CCCCCn1c(=O)c2c(c3ccc(OS(N)(=O)=O)cc31)CCCCC2 [Compound 20, 6-Oxo-5-pentyl-6,7,8,9,10,11-hexahydro-5H-cyclohepta[c]quinolin-3-yl sulfamate]	< 10%	–	–	–
COc1cc2c(cc1OS(N)(=O)=O)CC[C@@H]1[C@@H]2CC[C@]2(C)C(=O)CC[C@@H]12 [2-methoxyestrone 3-O-sulfamate, reference compound]	–	–	–	IC50 (STS [2]; [4]): 30 nM
NS(=O)(=O)Oc1ccc2c3c(c(=O)oc2c1)CCCCCCC3 [Compound 6, 6-Oxo-6,7,8,9,10,11,12,13-octahydrocyclonona[c]chromen-3-yl sulfamate]	–	0.022 nM	2.4 nM	–
NS(=O)(=O)Oc1ccc2c3c(c(=O)oc2c1)CCCCCCCCCCC3 [Compound 10, 6-Oxo-6,7,8,9,10,11,12,13,14,15,16,17-dodecahydrocyclotrideca[c]chromen-3-yl sulfamate]	–	220 nM	75 nM	–
